Experimental data published in US6977271B1, “Method for inhibition of angiogenesis and vasculogenesis” (Health Research, Inc., priority 2001, dated 2005).

Key:
[1] = system: rat mammary stromal cells (MSC); assay: In vitro angiogenesis assay: microcapillary network formation on EHS-RBM; type: cell-based; details: 7 days in culture; for microcapillary network diameter: 75, 100 and 125 μM
Method: An in vitro angiogenesis assay, the formation of microcapillary networks by rat mammary stromal vascular precursor cells on the angiogenic substrate, EHS-RBM, was used to compare the isomer- and concentration-dependent effects of mixed CLA isomers and c9,t11- and t10,c12-CLA. Rat mammary stromal cells (MSC) have the ability to act as true vascular precursors and were isolated from mammary glands as described (Zangani et al., 1999).
CLA-containing media was prepared as follows. Briefly, 18.1 μl of 5N NaOH was added to 28.2 μl of CLA (0.9 g/ml, FW 280) in a small Erlenmeyer flask, followed by vortexing, to make the sodium salt. Warm fetal calf serum (10 ml) was added, sonicated 3–4× with brief pulses (5 sec each), and then gassed with nitrogen and the flask sealed with parafilm. The mixture was incubated in a sonicating water bath for 30 min, followed by 5 min incubation in a 50° C. water bath. FBS (11.9 ml) was added to the flask, to bring the CLA to a final 33× concentration (4.125 mM).
Early passage MSC (prior to passage 4) were cultured in a 24 well plate at 2×10^4 cells/well, plated onto 0.4 ml EHS-RBM in the presence of phenol red free F12/DME with 3% FCS, supplemented with 0, 25, 50, 75, 100 or 125 μM CLA. After 7 days in culture, when the cells had formed multiple colonies of three-dimensional networks of tubules (Zangani et al., 1999), capillary networks were photographed, and the extent of network formation was assessed by measuring four planar diameters, at 45° intervals, of the branching colonies. The five largest colonies in each of three wells per group were assessed, for a total of fifteen colonies for each concentration of CLA per experiment. This experiment was replicated twice.

[2] = system: EHS-RBM pellet (angiogenic challenge); assay: In vivo EHS-RBM angiogenesis assay; set-up: species or system CD2/F1 mice
Method: (§1) To determine the effects of dietary CLA on angiogenesis, the in vivo angiogenesis model of Kibbey et al., 1992 was utilized. Briefly, CD2/F1 female mice were placed on diets with or without CLA at 8 or 12 weeks of age, with 10–12 mice per group per experiment. After 6 weeks of diet, mice were given bilateral injections of EHS-RBM containing 1.25 μg/ml bFGF and 60 μg/ml heparan sulfate using a 25-gauge needle, into the region of mammary gland four. Mice were sacrificed 7 days after injection. Blood was collected from the trunk for preparation of plasma for analysis of VEGF levels. Pellets and adjacent normal mammary gland tissue were removed and formalin fixed for paraffin embedding. This experiment was repeated four times.
Microsope visual fields, visualized with a 20× objective were analyzed for cellular invasion, and with a 40× objective for the presence of functional blood vessels, for a final magnification of 200 or 400×, respectively. The ability of dietary CLA to affect cellular invasion into the EHS-RBM pellet was analyzed on H&E-stained paraffin sections by counting the number of nuclei per field, excluding all acellular regions that remained uninvaded. A total of 68 fields were assessed in 13 pellets from mice on control diets, 75 fields were assessed from 9 pellets from mice on 1% CLA diets, and 62 fields analyzed from 13 pellets, obtained from mice on 2% CLA diets. We analyzed all pellets retrieved from the animals; there was a decline in the number of visible pellets in CLA-fed animals.
Functional angiogenesis was quantified by determining the number of cell-lined structures with patent lumen and red blood cells. H&E stained paraffin sections were visualized by epifluorescent illumination; red blood cells are strongly fluorescent due to their intensely eosinophilic cytoplasm. This intensity is easily distinguished from the dimly fluorescent nucleated cells. The relative dimness of nucleated cells may be partly due to the presence of nuclear and/or cytoplasmic hematoxylin, which quenches fluorescence. A total of 162 fields were analyzed from 21 slides from control diet animals, 158 fields were analyzed from 21 slides from 1% CLA diet animals, and 174 fields were analyzed from 13 slides from 2% CLA diet animals.

[3] = system: VEGF-A; assay: Serum VEGF analysis by ELISA after EHS-RBM challenge; type: in vivo, CD2/F1 mice; details: for reduction of average serum VEGF levels: 7 days after angiogenic challenge, relative to control diet
Method: as §1
Serum VEGF (VEGF-A) levels were assessed by ELISA using a commercial kit (Quantikine M mouse VEGF ELISA, R&D Systems), as per the manufacturer's instructions. VEGF levels were assessed in sera from mice which had been on diet for a total of 7 weeks, and had received EHS-RBM angiogenic challenge 1 week prior to sacrifice.

[4] = system: VEGF; assay: Western blot of VEGF in whole mammary gland lysates; type: in vivo, CD2/F1 mice; details: dietary CLA 7 weeks, no angiogenic challenge, dose-dependent
Method: (§2) Alternately, for analysis of whole mammary gland levels of VEGF and Flk-1, 10 mice per group were placed on diet at 8 weeks of age, and mice were sacrificed 7 weeks after diet initiation. Mammary glands were snap-frozen in liquid nitrogen to be utilized for preparation of whole gland lysates.
Whole mammary glands (gland four) were dissected after sacrifice from mice fed control- or CLA-supplemented diets, snap-frozen in liquid nitrogen and stored at −80° C. Lysates were prepared by pulverizing the frozen glands in a liquid nitrogen-cooled metal pulverizer to a fine powder. The powder was weighed in a pre-tared microfuge tube, and resuspended in ice-cold Triton X-100 lysis buffer (50 mM Tris, pH7.5 at room temperature, 250 mM NaCl, 5 mM EDTA, 0.1% (v/v) Triton X-100, supplemented with 0.1 mM PMSF, 20 ng/ml leupeptin and 100 ng/ml soybean trypsin inhibitor) using 2 ml per gram of tissue. The powder was then homogenized in an ice-cold microfuge tube, using 10–15 strokes of a fitted glass homogenizer. […] Lysates from 7 mice per dietary group were analyzed.
Lysates were loaded using equal protein per well, and proteins were separated on a 7.5% reducing SDS-gel according to the method of Laemmli well known in the art. […] Specific antibody-reactive bands were quantified by densitometry using a Model 300A Scanning Laser Densitometer and ImageQuant software (Molecular Dynamics).

[5] = system: Flk-1 (VEGF receptor 2); assay: Western blot of Flk-1 in whole mammary gland lysates; type: in vivo, CD2/F1 mice
Method: as §2
Whole mammary glands (gland four) were dissected after sacrifice from mice fed control- or CLA-supplemented diets, snap-frozen in liquid nitrogen and stored at −80° C. Lysates were prepared by pulverizing the frozen glands in a liquid nitrogen-cooled metal pulverizer to a fine powder. The powder was weighed in a pre-tared microfuge tube, and resuspended in ice-cold Triton X-100 lysis buffer (50 mM Tris, pH7.5 at room temperature, 250 mM NaCl, 5 mM EDTA, 0.1% (v/v) Triton X-100, supplemented with 0.1 mM PMSF, 20 ng/ml leupeptin and 100 ng/ml soybean trypsin inhibitor) using 2 ml per gram of tissue. The powder was then homogenized in an ice-cold microfuge tube, using 10–15 strokes of a fitted glass homogenizer. Samples were incubated on ice for 30 minutes, and then centrifuged for 10 min at 4° C. at 8,000×g. The supernatants were then aliquoted and frozen at −20° C. An aliquot of the sample was used to determine protein concentration, using the Bio-Rad protein assay. Immediately before electrophoresis, samples were prepared for loading by adding 4× Laemmli SDS-sample buffer at a 1:3 ratio to the thawed sample. The sample was then boiled, sonicated, and centrifuged for 10 min at 4° C., 8,000×g in a microfuge, before loading supernatant. Lysates from 7 mice per dietary group were analyzed.
Lysates were loaded using equal protein per well, and proteins were separated on a 7.5% reducing SDS-gel according to the method of Laemmli well known in the art. Proteins were transferred to nitrocellulose using a Bio-Rad Transblot Apparatus (Hercules, Calif.). Blots were blocked with Blotto (TBS (10 mM Tris, pH 8.0, 150 mM NaCl), 0.5% Tween 20, 5% (w/v) non-fat dry milk). All antibody incubations and subsequent rinses were performed in Blotto, with vigorous rocking. Rabbit anti-VEGF-A was used at a final concentration of 2 μg/ml, and rabbit anti-Flk-1 was used at a final concentration of 1 μg/ml. To control for variability in loading, the same blots used for VEGF were stripped and probed for Flk-1. The blots were then stripped again and probed with mouse antisera to hsc70, at a 1:20,000 final concentration. Hsc70 was used as a control for cellular protein loading of western blots, as a constitutively expressed cytoplasmic housekeeping protein. […] Specific antibody-reactive bands were quantified by densitometry using a Model 300A Scanning Laser Densitometer and ImageQuant software (Molecular Dynamics).

[6] = system: mouse epidermal carcinogenesis; details: Ha et al, 1987; Belury et al, 1996; cited from earlier work
[7] = system: mouse forestomach neoplasia; details: Ha et al, 1990; cited from earlier work
[8] = system: rat mammary carcinogenesis; details: Ip et al, 1991, 1994, 1995; cited from earlier work
[9] = system: aberrant crypt foci in the rat colon; details: Liew et al, 1995; cited from earlier work
[10] = system: MDA-MB468 breast cancer cells and DU-145 prostatic tumor cells; details: MDA-MB468 and DU-145 cells in SCID mice; Visonneau et al, 1997; Cesano et al, 1998; cited from earlier work

## CCCCCC/C=C/C=C\CCCCCCCC(=O)O [c9,t11-CLA, cis-9, trans-11 CLA]
[1]
  microcapillary network diameter: significantly decreased

## CCCCC/C=C\C=C\CCCCCCCCC(=O)O [t10,c12-CLA]
[1]; 100 and 125 μM
  microcapillary network size: significant decreased

## Conjugated Linoleic Acid [CLA]
[2]; 1% CLA diet vs control diet
  functional angiogenesis within the EHS pellet (structures containing red blood cells): significantly decreased
[2]; 2% CLA diet vs control diet
  functional angiogenesis within the EHS pellet (structures containing red blood cells): significantly decreased
[2]; CLA-fed mice (1% or 2% CLA diet) vs control diet, 7 days after EHS-RBM injection
  cellular invasion, number of nuclei per field in the invaded regions of the pellet: significantly decreased
[2]; CLA-fed vs control mice, data not shown
  average measured depth of cellular infiltration of the pellet: not different
[3]; 1% CLA diet for 7 weeks
  reduction of average serum VEGF levels: approximately 40%
[3]; 2% CLA diet for 7 weeks
  reduction of average serum VEGF levels: approximately 40%
[3]; data not shown
  systemic effect on serum VEGF with or without angiogenic challenge: only significant in mice stimulated by angiogenic challenge
[4]
  mammary gland VEGF 28 kDa band, densitometry normalized to hsc70: significantly decreased
  mammary gland VEGF 54 kDa band, densitometry normalized to hsc70: significantly decreased
[5]; animals fed 2% CLA
  expression of Flk-1 protein on western blot: uniformly low expression
[5]; dietary CLA, dose-dependent
  mammary gland Flk-1 60 kDa band, scanning densitometry: statistically significant decrease
  mammary gland Flk-1 200 kDa band, scanning densitometry: statistically significant decrease
[5]; mice fed 1% CLA
  expression of Flk-1 protein on western blot: variable expression
[1]
  microcapillary network diameter: significantly decreased
[1]; MSC on EHS-RBM
  total number of colonies and size/extent of their branching: inhibited
[6]
  DMBA-induced mouse epidermal carcinogenesis: inhibit
[7]
  BP-induced mouse forestomach neoplasia: inhibit
[8]
  DMBA- and NMU-induced rat mammary carcinogenesis: inhibit
[9]
  incidence of aberrant crypt foci in the rat colon: inhibit
[10]
  size and metastatic spread of human tumor cells: reduce
